The values below come from patent US20040204390A1, “Pharmaceutical combination comprising an anti-androgen and an oestrogen receptor beta agonist” (priority 2001, published 2004).

In assay [1] the target is estrogen receptor. Nature of the assay: Scatchard analysis of ligand binding affinity on receptor-programmed reticulocyte lysate. The settings on record: Scatchard analysis at receptor dilutions giving signal:noise ~10. The procedure: The volume of receptor-programmed reticulocyte lysate to be added to the binding assay can be determined independently from two measurements made on each batch of receptor prepared. First, Kis are determined for standard compounds using a series of dilutions of the receptor preparation. Scatchard analysis of ligand binding affinity is performed at the receptor dilutions that produced reported Kis for these compounds and an acceptable signal:noise ratio (˜10).

For assay [2] the following is noted: humans, single agent therapy, circulating in the blood; Blackledge et al, Urology 1996; cited from earlier work.

In the case of `CC12CCC3c4ccc(O)cc4CCC3C1CC([125I])C2O` (stereo not drawn) [[^125I]-estradiol, [^125I]-16α-iodo-3,17β-estradiol], the Kd in assay [1] fell in the range of 0.1 to 1 nM. `CC(O)(CS(=O)(=O)c1ccc(F)cc1)C(=O)Nc1ccc(C#N)c(C(F)(F)F)c1` (stereo not drawn) [bicalutamide, 4′-cyano-α′,α′,α′-trifluoro-3-(4-fluorophenylsulphonyl)-2-hydroxy-2-methylpropiono-m-toluidide]: the “basal level of total testosterone” value in assay [2] is recorded as “approximate doubling”.
